Experimental findings from ChEMBL document CHEMBL4393693, “Synthesis and Structure-Activity relationship of 1-(5-isoquinolinesulfonyl)piperazine analogues as inhibitors of Mycobacterium tuberculosis IMPDH” (Eur J Med Chem, 2019) are described below.

System in the first experiment: not listed separately
As to the kind of experiment: Selective ratio of inhibition of GuaB2 Tyr487Cys mutant in Mycobacterium tuberculosis H37Rv SRMV2.6 to inhibition of wild type GuaB2 in Mycobacterium tuberculosis H37Rv.
On to `Cc1ccccc1CNC(=O)N1CCN(S(=O)(=O)c2cccc3cnccc23)CC1`, for which the Ratio lay in the range of 16 to 32.

As for `CC1CCCCC1C(=O)N1CCN(S(=O)(=O)c2cccc3cnccc23)CC1` (configuration not stated), the Ratio is 16 to 32.

With `O=C(Nc1ccc2c(c1)OCO2)N1CCN(S(=O)(=O)c2cccc3cnccc23)CC1`, the Ratio was found to be 4.

For `O=C(C1CCCCC1)N1CCN(S(=O)(=O)c2cccc3cnccc23)CC1`, the Ratio turned out to be 32.

`O=C(Nc1ccc2c(c1)OCO2)N1CCCN(S(=O)(=O)c2cccc3cnccc23)CC1`: the Ratio lay within 8 to 16.

`CC1CN(S(=O)(=O)c2cccc3cnccc23)CCN1C(=O)Nc1ccc2c(c1)OCO2` (configuration not stated): the Ratio is 8 to 16.

The next experiment deals with Mycobacterium tuberculosis. As to the kind of experiment: Antimycobacterial activity against Mycobacterium tuberculosis H37Rv SRMV2.6 harboring GuaB2 Tyr487Cys mutant assessed as reduction in bacterial cell growth incubated for 3 to 4 weeks by alamar blue fluorescence based broth microdilution assay. The experiment is classed as functional. (In general: Resazurin is reduced to fluorescent resorufin, in cell work by metabolically active cells.)
The term MIC90 denotes the lowest concentration that inhibits either 90% of growth or 90% of the strains tested, depending on the study. For `COc1cccc(CNC(=O)N2CCN(S(=O)(=O)c3cccc4cnccc34)CC2)c1`, the MIC90 is above 100 µM.
